Data: US6627630B1, “Condensed pyridazine derivatives, their production and use” (Takeda Chemical Industries, Ltd., priority 1998, dated 2003)
Counter-ions that a name gives are not always drawn.

melting point | Structure (SMILES)
157 to 159 °C | c1ccc(C(OC2CCN(CCCOc3ccc4ncnn4n3)CC2)c2ccccc2)cc1 (as salt: fumarate) [Example 2A, 6-[3-[4-(Diphenylmethoxy)piperidino]propoxy][1,2,4]triazolo[1,5-b]pyridazine Fumarate]
170 to 172 °C | Cc1cc2ncnn2nc1OCCCCCCN1CCN(C(c2ccccc2)c2ccccc2)CC1 (as salt: hydrochloride) [Example 51A, 6-[6-[4-(Diphenylmethyl)-1-piperazinyl]hexyloxy]-7-methyl[1,2,4]triazolo[1,5-b]pyridazine Dihydrochloride]
143 to 145 °C | CC(C)c1cc2ncnn2nc1SCCOCCN1CCN(C(c2ccccc2)c2ccccc2)CC1 (as salt: hydrochloride) [Example 59A, 6-[2-[2-[4-(Diphenylmethyl)-1-piperazinyl]ethoxy]ethylthio]-7-isopropyl[1,2,4]triazolo[1,5-b]pyridazine Dihydrochloride]
150 to 152 °C | CC(C)(C)c1cc2ncnn2nc1OCCOCCN1CCN(C(c2ccccc2)c2ccccc2)CC1 (as salt: hydrochloride) [Example 62A, 7-t-Butyl-6-[2-[2-[4-(Diphenylmethyl)-1-piperazinyl]ethoxy]ethoxy][1,2,4]triazolo[1,5-b]pyridazine Dihydrochloride]
139 to 140 °C | c1ccc(C(c2ccccc2)N2CCN(CCCNc3ccc4ncnn4n3)CC2)cc1 [Example 5A, 6-[3-[4-(Diphenylmethyl)-1-piperazinyl]propylamino][1,2,4]triazolo[1,5-b]pyridazine]
136 to 138 °C | c1ccc(C(OC2CCN(CCCNc3ccc4ncnn4n3)CC2)c2ccccc2)cc1 [Example 6A, 6-[3-[4-(Diphenylmethoxy)piperidino]propylamino][1,2,4]triazolo[1,5-b]pyridazine]
137 to 139 °C | CC(C)c1cc2ncnn2nc1SCCCN1CCN(C(c2ccccc2)c2ccccc2)CC1 [Example 9A, 6-[3-[4-(Diphenylmethyl)-1-piperazinyl]propylthio]-7-isopropyl[1,2,4]triazolo[1,5-b]pyridazine]
137 to 139 °C | c1ccc(C(OC2CCN(c3ccc4ncnn4n3)CC2)c2ccccc2)cc1 [Example 11A, 6-[4-(Diphenylmethoxy)piperidino][1,2,4]triazolo[1,5-b]pyridazine]
102 to 104 °C | c1ccc(C(OC2CCN(CCCCNc3ccc4ncnn4n3)CC2)c2ccccc2)cc1 [Example 12A, 6-[4-[4-(Diphenylmethoxy)piperidino]butylamino][1,2,4]triazolo[1,5-b]pyridazine]
152 to 154 °C | c1ccc(C(OC2CCN(CCNc3ccc4ncnn4n3)CC2)c2ccccc2)cc1 [Example 13A, 6-[2-[4-(Diphenylmethoxy)piperidino]ethylamino][1,2,4]triazolo[1,5-b]pyridazine]
133 to 135 °C | CC(C)(C)c1cc2ncnn2nc1OCCN1CCC(OC(c2ccccc2)c2ccccc2)CC1 [Example 15A, 7-t-Butyl-6-[2-[4-(Diphenylmethoxy)piperidino]ethoxy][1,2,4]triazolo[1,5-b]pyridazine]
133 to 135 °C | OC(COc1ccc2ncnn2n1)CN1CCC(OC(c2ccccc2)c2ccccc2)CC1 (stereo not drawn) [Example 16A, 1-[4-(Diphenylmethoxy)piperidino]-3-([1,2,4]triazolo[1,5-b]pyridazin-6-yloxy)-2-propanol]
176 to 177 °C | O=C(CCN1CCN(C(c2ccccc2)c2ccccc2)CC1)Nc1ccc2ncnn2n1 [Example 19A, 3-[4-(Diphenylmethyl)-1-piperazinyl]-N-([1,2,4]triazolo[1,5-b]pyridazin-6-yl)propionamide]
119 to 120 °C | Cc1nc2ccc(NCCCN3CCC(OC(c4ccccc4)c4ccccc4)CC3)nn2n1 [Example 20A, 6-[3-[4-(Diphenylmethoxy)piperidino]propylamino]-2-methyl[1,2,4]triazolo[1,5-b]pyridazine]
134 to 136 °C | Cc1nc2ccc(OCCCN3CCC(OC(c4ccccc4)c4ccccc4)CC3)nn2n1 [Example 21A, 6-[3-[4-(Diphenylmethoxy)piperidino]propoxy]-2-methyl[1,2,4]triazolo[1,5-b]pyridazine]
158 to 160 °C | O=C(CN1CCC(OC(c2ccccc2)c2ccccc2)CC1)Nc1ccc2ncnn2n1 [Example 23A, 2-[4-(Diphenylmethoxy)piperidino]-N-([1,2,4]triazolo[1,5-b]pyridazin-6-yl)acetamide]
203 to 204 °C | O=C(CN1CCN(C(c2ccccc2)c2ccccc2)CC1)Nc1ccc2ncnn2n1 [Example 24A, 2-[4-(Diphenylmethyl)-1-piperazinyl]-N-([1,2,4]triazolo[1,5-b]pyridazin-6-yl)acetamide]

melting point | Structure (SMILES)
75 to 76 °C | O=C(OCCOc1ccc2ncnn2n1)N1CCC(OC(c2ccccc2)c2ccccc2)CC1 [Example 25A, 6-[2-[4-(Diphenylmethoxy)piperidinocarbonyloxy]ethoxy][1,2,4]triazolo[1,5-b]pyridazine]
157 to 159 °C | O=C(OCCOc1ccc2ncnn2n1)N1CCN(C(c2ccccc2)c2ccccc2)CC1 [Example 26A, 6-[2-[4-(Diphenylmethyl)-1-piperazinyl-carbonyloxy]ethoxy][1,2,4]triazolo[1,5-b]pyridazine]
119 to 120 °C | O=C(OCCCOc1ccc2ncnn2n1)C1CC(OC(c2ccccc2)c2ccccc2)CCN1 (stereo not drawn) [Example 27A, 6-[3-[4-(Diphenylmethoxy)piperidino-carbonyloxy]propoxy][1,2,4]triazolo[1,5-b]pyridazine]
170 to 172 °C | c1ccc(-c2nc3ccc(NCCCN4CCC(OC(c5ccccc5)c5ccccc5)CC4)nn3n2)cc1 [Example 32A, 6-[3-[4-(Diphenylmethoxy)piperidino]propylamino]-2-phenyl[1,2,4]triazolo[1,5-b]pyridazine]
93 to 96 °C | COC(=O)c1nc2ccc(NCCCN3CCC(OC(c4ccccc4)c4ccccc4)CC3)nn2n1 [Example 36A, Methyl 6-[3-[4-(Diphenylmethoxy)piperidino]propylamino][1,2,4]triazolo[1,5-b]pyridazine-2-carboxylate]
130 to 132 °C | c1ccc(C(c2ccccc2)N2CCN(CCCCCCNc3ccc4ncnn4n3)CC2)cc1 [Example 37A, 6-[6-[4-(Diphenylmethyl)-1-piperazinyl]hexylamino][1,2,4]triazolo[1,5-b]pyridazine]
133 to 135 °C | COc1cn2nc(OCCCN3CCC(OC(c4ccccc4)c4ccccc4)CC3)ccc2n1 [Example 41A, 6-[3-[4-(Diphenylmethoxy)piperidino]propoxy]-2-methoxyimidazo[1,2-b]pyridazine]
144 to 146 °C | COc1cn2nc(OCCCN3CCN(C(c4ccccc4)c4ccccc4)CC3)ccc2n1 [Example 42A, 6-[3-[4-(Diphenylmethyl)-1-piperazinyl]propoxy]-2-methoxyimidazo[1,2-b]pyridazine]
71 to 72 °C | Cc1cc2ncnn2nc1OCCOCCN1CCN(C(c2ccccc2)c2ccccc2)CC1 [Example 47A, 6-[2-[2-[4-(Diphenylmethyl)-1-piperazinyl]ethoxy]ethoxy]-7-methyl[1,2,4]triazolo[1,5-b]pyridazine]
80 to 82 °C | Cc1cc2ncnn2nc1OCCOCCN1CCC(OC(c2ccccc2)c2ccccc2)CC1 [Example 53A, 6-[2-[2-[4-(Diphenylmethoxy)piperidino]ethoxy]ethoxy]-7-methyl[1,2,4]triazolo[1,5-b]pyridazine]
106 to 108 °C | CC(C)(C)c1cc2ncnn2nc1SCCOCCN1CCN(C(c2ccccc2)c2ccccc2)CC1 [Example 60A, 6-[2-[2-[4-(Diphenylmethyl)-1-piperazinyl]ethoxy]ethylthio]-7-t-butyl[1,2,4]triazolo[1,5-b]pyridazine]
119 to 120 °C | CC(C)c1cc2ncnn2nc1OCCOCCN1CCN(C(c2ccccc2)c2ccccc2)CC1 [Example 61A, 6-[2-[2-[4-(Diphenylmethyl)-1-piperazinyl]ethoxy]ethoxy]-7-isopropyl[1,2,4]triazolo[1,5-b]pyridazine]
172 to 174 °C | CCOC(=O)CNC(=O)c1cn2nc(NCCCN3CCC(OC(c4ccccc4)c4ccccc4)CC3)ccc2n1 [Example 70A, N-[6-[3-[4-(Diphenylmethoxy)piperidino]propylamino]imidazo[1,2-b]pyridazine-2-carbonyl]glycine Ethyl Ester]
171 °C | O=C(O)CNC(=O)c1cn2nc(NCCCN3CCC(OC(c4ccccc4)c4ccccc4)CC3)ccc2n1 [Example 72A, N-[6-[3-[4-(Diphenylmethoxy)piperidino]propylamino]imidazo[1,2-b]pyridazine-2-carbonyl]glycine]
105 to 108 °C | CC(C)(CO)c1cn2nc(NCCCN3CCC(OC(c4ccccc4)c4ccccc4)CC3)ccc2n1 [Example 75A, 2-[6-[3-[4-(Diphenylmethoxy)piperidino]propylamino]imidazo[1,2-b]pyridazin-2-yl)-2-methylpropanol]
194 to 198 °C | CC(C)(C(=O)O)c1cn2nc(NCCN3CCC(OC(c4ccccc4)c4ccccc4)CC3)ccc2n1 [Example 79A, 2-[6-[2-[4-(Diphenylmethoxy)piperidino]ethylamino]imidazo[1,2-b]pyridazin-2-yl]-2-methylpropionic Acid]
184 to 186 °C | CC(C)(C(=O)O)c1nc2ccc(NCCCN3CCN(C(c4ccccc4)c4ccccc4)CC3)nn2c1Cl [Example 85A, 2-[3-Chloro-6-[3-[4-(diphenylmethyl)-1-piperazinyl]propylamino]imidazo[1,2-b]pyridazin-2-yl]-2-methylpropionic Acid]

Structure (SMILES) | melting point
CC(C)(C(=O)O)c1cn2nc(NCCCN3CCC(OC(c4ccccc4)c4ccccc4)CC3)ccc2n1.O.O (hydrate or solvate) [Example 135A, 2-[6-[3-[4-(Diphenylmethoxy)piperidino]propylamino]imidazo[1,2-b]pyridazin-2-yl)-2-methylpropionic Acid Dihydrate] | 203 to 205 °C
CC(C)(C(=O)O)c1cn2nc(NCCCN3CCC(OC(c4ccccc4)c4ccccc4)CC3)ccc2n1 [Example 43A, 2-[6-[3-[4-(Diphenylmethoxy)piperidino]propylamino]imidazo[1,2-b]pyridazin-2-yl]-2-methylpropionic Acid] | 205 to 206 °C
